The source of these data is patent US20140343017A1, “PYRROLE COMPOUND” (Kabushiki Kaisha Yakult Honsha, priority 2012, published 2014).

Assay [1] relates to human lung cancer NCI-H460 xenograft tumor. Nature of the assay: Antitumor effect on growth of human lung cancer NCI-H460 xenograft tumor (in vivo). Set-up: species or system BALB/c nude mice. The conditions noted are these: Mus musculus, NCI-H460, iv, 528 h, tail vein, excised tumor weight Day 22, read-out: Inhibition Rate (%). The method, then:
Each compound of the present invention was studied for its in vivo antitumor effect using human lung cancer NCI-H460 cell-transplanted mice. An NCI-H460 cell suspension containing 2×10^6 cells was subcutaneously transplanted in an amount of 0.1 mL/mouse to the left groin areas of 6-week-old male BALB/c nude mice. The mice were further raised for approximately 1 week to 10 days and divided into groups (4 mice per group) having equal estimated tumor volumes at the point in time when the tumor size reached approximately 100 to 200 mm^3 (Day 1). Each administration sample was administered at a dose of 10 mL/kg into the tail vein of the mice. The dose and administration schedule of each compound were as described in Table 3. At Day 22, tumor was excised from each mouse. The tumor growth inhibition rate (IR: Inhibition Rate) was calculated from the weight of the excised tumor according to the expression shown below. The Dunnett's test was used in the significant difference test.
Tumor growth inhibition rate (Inhibition Rate, %)=(1−(Excised tumor weight of the administration group)/(Excised tumor weight of the control group))×100
For orientation: Xenograft models place foreign cells or tissue in a host animal.

The subject of assay [2] is human non-small cell lung cancer A549 cells. In words: Inhibitory effect on growth of human cancer cells (in vitro), WST-8. It is filed as cell-based. The conditions noted are these: Homo sapiens, A549, 96 h, 96 hours culture. In short, it runs like this:
(§1)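 Cells seeded at 1000 cells/well in RPMI1640 with 10% FBS, compounds added after overnight culture, then 96 h exposure. Viability by WST-8, about 1 h at 37 °C, 5% CO2, absorbance read at 450 nm.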
(In general: Formazan colour is commonly taken as a measure of viable cells.)

Assay [3] relates to human colorectal cancer HT-29 cells. The description is as above. Format: cell-based. The settings on record: Homo sapiens, HT-29, 96 h, 96 hours culture, read-out: IC50 (nM) HT29. In short, it runs like this:
as §1

In assay [4] the test system is human colorectal cancer HCT116 cells. Described as above. It is filed as cell-based. The conditions noted are these: Homo sapiens, HCT-116, 96 h, 96 hours culture. The method, boiled down:
as §1

Assay [5] deals with multidrug-resistant line MES-SA/Dx5 cells. In words: Inhibitory effect on growth of multidrug-resistant cell line (in vitro). It is filed as cell-based, human. The conditions noted are these: for IC50: Homo sapiens, MES-SA/Dx5 cells, 48 hours culture, WST-8; for Resistance rate: IC50 value (MES-SA/Dx5)/IC50 value (MES-SA). The text has this:
(§2) Each compound of the present invention was studied for its effect on the growth of a multidrug-resistant cell line. A drug efflux pump called P-glycoprotein is well known to be involved in the drug resistance mechanism of the multidrug-resistant line MES-SA/Dx5 used in this experiment. Accordingly, in this experiment, paclitaxel and vincristine, which are proven substrates of P-glycoprotein, were used as control drugs. Human uterus cancer MES-SA cells and their multidrug-resistant line MES-SA/Dx5 cells were suspended in a medium and inoculated at a cell density of 2000 cells/50 μL/well to a 96-well plate. After overnight culture, each test sample diluted with a medium was added thereto at a concentration of 50 μL/well, and the cells were further cultured for 48 hours. After the completion of culture, WST-8 was added thereto at a concentration of 10 μL/well, and the cells were cultured at 37° C. for approximately 1 hour under 5% CO2 conditions, followed by measurement of absorbance at a wavelength of 450 nm. […] The resistance rate was calculated according to the following expression:
(§3) Resistance rate=IC50 value (MES-SA/Dx5)/IC50 value (MES-SA)

Assay [6] concerns Human uterus cancer MES-SA cells. Nature of the assay: Inhibitory effect on growth of multidrug-resistant cell line, parent line (in vitro). It is filed as cell-based. The settings on record: 48 hours culture, WST-8.
Description: as §2, §3

Where [7] appears, read: Days 1, 3, 5, 8, 10, 12, 15, 17, 19.
[8] abbreviates: Days 1, 3, 8, 10, 12, 15, 17, 19.

Like-named read-outs stand apart in the source and are kept apart here.

Consider `COc1ccc(C(=O)c2c(C(C)O)[nH]c(-c3nnc(C4CC4)o3)c2C)cc1Br` (centres unmarked) [Compound 268, (3-bromo-4-methoxyphenyl)(5-(5-cyclopropyl-1,3,4-oxadiazol-2-yl)-2-(1-hydroxyethyl)-4-methyl-1H-pyrrol-3-yl)methanone], for which, in assay [1] (setting [7]), the inhibition in vivo at 20 mg/kg turned out to be 41.2%. The IC50 was determined as 4.1 nM in assay [2], 5.2 nM in assay [3] and 2.5 nM in assay [4].
Turning to `CCc1nnc(-c2[nH]c(C)c(C(=O)c3cccc(OC)c3)c2C)o1` [Compound 193, (5-(5-ethyl-1,3,4-oxadiazol-2-yl)-2,4-dimethyl-1H-pyrrol-3-yl) (3-methoxyphenyl)methanone], in assay [1] (setting [8]), the inhibition in vivo at 10 mg/kg came out at 33.9%. For the same compound, the IC50 in assay [2] was 4.3 nM; in assay [3], 2.1 nM; in assay [4], 2.5 nM.
Regarding `Cc1[nH]c(-c2nnn(CCO)n2)c(C)c1C(=O)c1cccc(Br)c1` [Compound 102, (3-bromophenyl)(5-(2-(2-hydroxyethyl)-2H-tetrazol-5-yl)-2,4-dimethyl-1H-pyrrol-3-yl)methanone], the IC50 in assay [5] was 4.3 nM; in assay [6], 3.8 nM; in assay [2], 19.3 nM; in assay [3] it was 8.7 nM; in assay [4], 9.5 nM. Also, the Resistance rate in assay [5] is given as 1.1. Moreover, in assay [1] (setting [7]), the inhibition in vivo at 12.5 mg/kg was 43.4%. The inhibition in vivo at 25 mg/kg in assay [1] (setting [7]) was 61.1%. Further, in assay [1] (37.5 mg/kg, Days 1, 3, 5, 8, 10, 12, 15, 17, 19), the inhibition in vivo at 37.5 mg/kg is 80.5%. Also, the inhibition in vivo at 40 mg/kg in assay [1] (40 mg/kg, Days 1, 5, 9) stood at 96.5%.
`CCn1nnc(-c2[nH]c(C)c(C(=O)c3ccc(OC)c(Br)c3)c2C)n1` [Compound 109, (3-bromo-4-methoxyphenyl)(5-(2-ethyl-2H-tetrazol-5-yl)-2,4-dimethyl-1H-pyrrol-3-yl)methanone]: the inhibition in vivo at 25 mg/kg in assay [1] (setting [8]) amounted to 29%. In addition, the IC50 is 9.2 nM in assay [2], 1 nM in assay [3] and 2 nM in assay [4].
For `CC[C@]1(O)C[C@H]2CN(CCc3c([nH]c4ccccc34)[C@@](C(=O)OC)(c3cc4c(cc3OC)N(C=O)[C@H]3[C@@](O)(C(=O)OC)[C@H](OC(C)=O)[C@]5(CC)C=CCN6CC[C@]43[C@@H]65)C2)C1` [Vincristine, vincristine, reference compound], in assay [5], the IC50 is 2440 nM and the Resistance rate came out at 67.5. Also, in assay [6], the IC50 is 36.2 nM.
For `COc1cccc(C(=O)c2c(C)[nH]c(-c3nnn(CCO)n3)c2C)c1` [Compound 107], in assay [1] (setting [7]), the inhibition in vivo at 25 mg/kg worked out at 32.6%. Also, the IC50 worked out at 54.9 nM in assay [2], 16.1 nM in assay [3] and 27.4 nM in assay [4].
`CCn1nnc(-c2[nH]c(C)c(C(=O)c3cccc(Br)c3)c2C)n1` [Compound 97, (3-bromophenyl)(5-(2-ethyl-2H-tetrazol-5-yl)-2,4-dimethyl-1H-pyrrol-3-yl)methanone]: the inhibition in vivo at 30 mg/kg in assay [1] (30 mg/kg, Days 1, 3, 5, 8, 10, 12, 15, 17, 19) was 31.2%. Moreover, the IC50 in assay [2] is 2.4 nM; in assay [3] it was 3.5 nM; in assay [4], 4.1 nM.
With `COc1ccc(C(=O)c2c(C)[nH]c(-c3nnn(CCO)n3)c2C)cc1Br` [Compound 110, (3-bromo-4-methoxyphenyl)(5-(2-(2-hydroxyethyl)-2H-tetrazol-5-yl)-2,4-dimethyl-1H-pyrrol-3-yl)methanone], the IC50 in assay [5] worked out at 22.7 nM; in assay [6], 5.5 nM; in assay [2], 39.3 nM; in assay [3], 8.2 nM; in assay [4], 14.2 nM. Also, the Resistance rate in assay [5] came out at 4.2. In addition, the inhibition in vivo at 12.5 mg/kg in assay [1] (setting [7]) was 55.8%. The inhibition in vivo at 18.75 mg/kg in assay [1] (18.75 mg/kg, Days 1, 3, 5, 8, 10, 12, 15, 17, 19) turned out to be 77.4%.
In the case of `COc1ccc(C(=O)c2c(C=O)[nH]c(-c3nnc(C4CC4)o3)c2C)cc1Br` [Compound 263, 3-(3-bromo-4-methoxybenzoyl)-5-(5-cyclopropyl-1,3,4-oxadiazol-2-yl)-4-methyl-1H-pyrrole-2-carboaldehyde], in assay [1] (50 mg/kg, Days 1, 3, 5, 8, 10, 12, 15, 17, 19), the inhibition in vivo at 50 mg/kg stood at 59.6%. Also, the IC50 in assay [2] came out at 36.5 nM; in assay [3] it was 32.5 nM; in assay [4], 53.8 nM.
As to `COc1ccc(C(=O)c2c(C(F)F)[nH]c(-c3nnc(C4CC4)o3)c2C)cc1Br` [Compound 267, (3-bromo-4-methoxyphenyl) (5-(5-cyclopropyl-1,3,4-oxadiazol-2-yl)-2-(difluoromethyl)-4-methyl-1H-pyrrol-3-yl)methanone], the inhibition in vivo at 20 mg/kg in assay [1] (setting [7]) worked out at 35.6%. For the same compound, the IC50 in assay [2] was 13 nM; in assay [3], 10.7 nM; in assay [4], 39 nM.
As to `CCc1nnc(-c2[nH]c(C)c(C(=O)c3cccc(Br)c3)c2C)o1` [Compound 173, (3-bromophenyl)(5-(5-ethyl-1,3,4-oxadiazol-2-yl)-2,4-dimethyl-1H-pyrrol-3-yl)methanone], in assay [1] (setting [7]), the inhibition in vivo at 10 mg/kg came out at 40.2%. In addition, the 50% inhibitory concentration (IC50) worked out at 5.1 nM in assay [2], 1 nM in assay [3] and 1.1 nM in assay [4].
Consider `COc1ccc(Br)cc1C(=O)c1c(C)[nH]c(-c2nnc(C3CC3)o2)c1C` [Compound 240, (5-bromo-2-methoxyphenyl)(5-(5-cyclopropyl-1,3,4-oxadiazol-2-yl)-2,4-dimethyl-1H-pyrrol-3-yl)methanone], for which the inhibition in vivo at 12.5 mg/kg in assay [1] (setting [7]) amounted to 33.2%. Besides, the IC50 in assay [2] is 2.1 nM; in assay [3], 1.1 nM; in assay [4], 1.9 nM.
Regarding `COc1ccc(C(=O)c2c(C)[nH]c(-c3nnc(C4CC4)o3)c2C)cc1Br` [Compound 198, (3-bromo-4-methoxyphenyl) (5-(5-cyclopropyl-1,3,4-oxadiazol-2-yl)-2,4-dimethyl-1H-pyrrol-3-yl)methanone], the IC50 was 0.28 nM in assay [5]; 0.21 nM in assay [6]; 1.8 nM in assay [2]; 0.3 nM in assay [3]; 0.9 nM in assay [4]. Moreover, the Resistance rate in assay [5] turned out to be 1.3. Besides, the inhibition in vivo at 10 mg/kg in assay [1] (setting [8]) is 51.6%.
Turning to `COc1ccc(C(=O)c2c(CO)[nH]c(-c3nnc(C4CC4)o3)c2C)cc1Br` [Compound 266, (3-bromo-4-methoxyphenyl)(5-(5-cyclopropyl-1,3,4-oxadiazol-2-yl)-2-(hydroxymethyl)-4-methyl-1H-pyrrol-3-yl)methanone], in assay [1] (setting [7]), the inhibition in vivo at 20 mg/kg amounted to 39.4%. In addition, the IC50 in assay [2] is 4.7 nM; in assay [3], 2.7 nM; in assay [4] it was 1.6 nM.

What is called IC50 is the concentration at which inhibition is half-maximal.
